Measurements as given in patent US10745405B2, “Glucuronide prodrugs of Janus kinase inhibitors” (THERAVANCE BIOPHARMA R&D IP, LLC, priority 2017, dated 2020).

How the values were obtained:
[1] = test system: β-glucuronidase in rat colon feces; assay: Rat colon fecal homogenate stability assay; assay type: in vitro ADME; details: male, Sprague Dawley, rat colon fecal supernatant-homogenate; in vitro half-life of the prodrug in rat fecal supernatant-homogenate, anaerobic, 10 μM substrate; read-out: T½
Description: The compounds of the present invention contain a glucuronide prodrug moiety that is expected to be cleaved by β-glucuronidase enzyme to release a JAK inhibitor (e.g., ruxolitinib, baricitinib or oclacitinib). The objective of this assay was to determine the half-life for compounds of the present invention in the presence of β-glucuronidase in rat colon feces. Following sacrifice of a naïve male Sprague Dawley rat (˜300 g) by cardiac puncture exsanguination, the colon was ligated and removed to an anaerobic chamber (AS-580, Anaerobe Systems). The fecal content was removed within the chamber and was diluted 1:10 with phosphate buffer (1 gram fecal content to 9 mL phosphate buffer) and the resulting mixture was homogenized using a handheld Omni Tissue Master. The fecal homogenate was centrifuged at 2000 g for 10 min to remove bulk material and the supernatant was removed and used for the incubations. DMSO stock solutions (10 mM) of the test compounds and sulfasalazine (control) were prepared. Sulfasalazine was used as a positive control to confirm viability of the fecal supernatant-homogenate (see, e.g., Azad Khan et al., Clinical Science (1983) 64, 349-354). If the in vitro half-life (T½) for sulfasalazine in the fecal sample was less than 30 min, the fecal sample was deemed to be viable and in true anaerobic conditions. However, if the T½ for sulfasalazine was greater than 30 min, the fecal sample was typically contaminated with oxygen and was not viable. The final substrate concentration of each assay was 10 μM. Reactions were started by adding a 5 μL aliquot of diluted test compound stock solution into 300 μL of rat fecal supernatant-homogenate. At 0, 15, 50, 85 and 120 min post reaction initiation, a 50 μL aliquot was removed and added to a mixture of 200 μL of acetonitrile with 3% formic acid and an internal standard. All samples were centrifuged at 2000 g for 10 min after which 50 μL of supernatant was diluted into 150 μL of water for analysis on an LC-MS system. In vitro half-lives (T½) for the test compounds were calculated as follows: T½=0.693/elimination rate constant.

[2] = Oral pharmacokinetics in mouse assay; assay type: in vivo; details: liberated JAK inhibitor in colon tissue, AUC0-6 h, single PO dose 5 mg/kg of prodrug, male Balb/c mice
Procedure: When cleaved by β-glucuronidase enzyme, the compounds of the present invention release a JAK inhibitor (e.g., ruxolitinib, baricitinib or oclacitinib). The object of this assay was to determine JAK inhibitor exposure (AUC0-6 h) in colon tissue and plasma following oral dosing of compounds of the present invention in mice. Male Balb/c mice (n=2/time point) received a single PO oral gavage dose (5 mg/kg in 1:20 mixture of 5% DMSO and 1% HPMC) of the test compound. At 0.5, 2, 6 and 24 h post-dosing, mice were sacrificed via cardiac puncture exsanguination and blood samples were taken and placed into sample tubes (Microtainer, Becton, Dickinson and Company) containing sodium fluoride and then placed on ice. Plasma was obtained by centrifugation (Eppendorf centrifuge, 5804R) for 4 min at approximately 12,000 rpm at 4° C. The colons were removed from the exsanguinated mice and the colon fecal contents were gently removed. The colons were flushed with saline and patted dry. The colons were then homogenized in 3× volume of sterile water using a tissue homogenizer (Precellys homogenizer, Bertin Instruments) at approximately 4° C. All samples were stored at −80° C. for later bioanalysis. The concentration of JAK inhibitor (e.g., ruxolitinib, baricitinib or oclacitinib) in each sample was determined as follows: the plasma and colon homogenate samples were vortexed, combined with a 50 μL aliquot of rat plasma, extracted with 200 μL of ACN containing an internal standard and quantified against the internal standard by LC-MS. An area-under-the-concentration curve (AUC0-6 h) was calculated for plasma and colon test compound and liberated JAK inhibitor. A key parameter to assess suitability for localized delivery of the JAK inhibitor to the colon was the JAK inhibitor colon to plasma AUC ratio.

With `CN(CCN(C)C(=O)n1ccc2c(-c3cnn([C@H](CC#N)C4CCCC4)c3)ncnc21)C(=O)OCc1ccc(O[C@@H]2O[C@H](C(=O)O)[C@@H](O)[C@H](O)[C@H]2O)c([N+](=O)[O-])c1` [Compound VII-1, (2S,3S,4S,5R,6S)-6-(4-((((2-(4-(1-((R)-2-Cyano-1-cyclopentylethyl)-1H-pyrazol-4-yl)-N-methyl-7H-pyrrolo[2,3-d]pyrimidine-7-carboxamido)ethyl)-(methyl)carbamoyl)oxy)methyl)-2-nitrophenoxy)-3,4,5-trihydroxytetrahydro-2H-pyran-2-carboxylic Acid] the half-life at 10 μM [1] was under 5 min and the “Colon AUC” value [2] was 7.4 µg·h/g.
For `CNS(=O)(=O)C[C@H]1CC[C@H](N(C)c2ncnc3c2ccn3C(=O)N(C)CCN(C)C(=O)OCc2ccc(O[C@@H]3O[C@H](C(=O)O)[C@@H](O)[C@H](O)[C@H]3O)c([N+](=O)[O-])c2)CC1` [Compound VII-3, (2S,3S,4S,5R,6S)-3,4,5-Trihydroxy-6-(4-(((methyl(2-(N-methyl-4-(methyl((1r,4r)-4-((N-methylsulfamoyl)methyl)cyclohexyl)amino)-7H-pyrrolo[2,3-d]pyrimidine-7-carboxamido)ethyl)carbamoyl)oxy)methyl)-2-nitrophenoxy)tetrahydro-2H-pyran-2-carboxylic Acid], the half-life at 10 μM [1] was under 5 min and the “Colon AUC” value [2] was 13.5 µg·h/g.
With `CCS(=O)(=O)N1CC(CC#N)(n2cc(-c3ncnc4c3ccn4C(=O)N(C)CCN(C)C(=O)OCc3ccc(O[C@@H]4O[C@H](C(=O)O)[C@@H](O)[C@H](O)[C@H]4O)c([N+](=O)[O-])c3)cn2)C1` [Compound VII-2, (2S,3S,4S,5R,6S)-6-(4-((((2-(4-(1-(3-(Cyanomethyl)-1-(ethylsulfonyl)azetidin-3-yl)-1H-pyrazol-4-yl)-N-methyl-7H-pyrrolo[2,3-d]pyrimidine-7-carboxamido)ethyl)-(methyl)carbamoyl)oxy)methyl)-2-nitrophenoxy)-3,4,5-trihydroxytetrahydro-2H-pyran-2-carboxylic Acid] the half-life at 10 μM [1] was under 5 min and the “Colon AUC” value [2] was 17.3 µg·h/g.
